Literature values as cited in US12721834B2, “Combination treatment for Netherton syndrome” (Quoin Pharmaceuticals Inc., priority 2023, dated 2026).

Conditions: in vivo

Substance	dermal toxicity
Poly(vinylpyrrolidone/1-eicosene) [PVPE]	no demonstrable dermal toxicity
Poly(vinylpyrrolidone/1-hexadecene) [PVPH]	no demonstrable dermal toxicity
